Reference: patent publication US11053234B2 (GlaxoSmithKline Intellectual Property Development Limited, priority 2016, dated 2021)

Biological target: T1, haematopoietic prostaglandin D synthase (H-PGDS) (Homo sapiens, UniProt O60760)
T1 construct: Full length human H-PGDS cDNA (Invitrogen Ultimate ORF 10H13026) was amplified by PCR; 6-His (N); TEV protease cleavage site (N); made in house; host or cells: E. coli BL21 (DE3*), vector pET22b+
Experiment: H-PGDS RapidFire high throughput mass spectrometry assay (conversion of PGH2 to PGD2)
Assay type: biochemical
Details: 10 nM H-PGDS, PGH2 formed in situ by COX-2 from arachidonic acid; read-out: Potency Range (mean pIC50) (converted)
Method: H-PGDS RapidFire™ High Throughput Mass Spectrometry Assay
The H-PGDS RapidFire™ mass spectrometric assay monitors conversion of prostaglandin H2 (PGH2) to prostaglandin D2 (PGD2) by haematopoietic prostaglandin D synthase (H-PGDS). In the assay format described here, the substrate (PGH2) is formed in situ by the action of cyclooxygenase-2 on arachidonic acid. This first step is set up to be fast, and generates a burst of PGH2 at ˜10 μM. The PGH2 is then further converted to PGD2 by the H-PGDS enzyme. […] Plates are then read on the RapidFire™ high throughput solid phase extraction system (Agilent) which incorporates a solid phase extraction step coupled to a triple quadrupole mass spectrometer (AB SCIEX). Relative levels of PGD2 and PGF2α, which acts as a surrogate for substrate, are measured and a percent conversion calculated.
Expression and Purification of H-PGDS Protein
Full length human H-PGDS cDNA (Invitrogen Ultimate ORF 10H13026) was amplified by PCR with the addition of a 5′ 6-His tag and TEV protease cleavage site. The PCR product was digested with Ndel and Xhol and ligated into pET22b+ (Merck Novagen®). Expression was carried out in E. coli strain BL21 (DE3*) using auto-induction Overnight Express™ Instant TB medium (Merck Novagen®) supplemented with 1% glycerol. The culture was first grown at 37° C. and the temperature was reduced to 25° C. when OD600 reached 2.0. Cells were harvested by centrifugation after a further 18 hr. 10 g of E. coli cell pellet was suspended to a total volume of 80 mL in lysis buffer (20 mM Tris-Cl pH 7.5, 300 mM NaCl, 20 mM imidazole, 5 mM β-mercaptoethanol, 10% glycerol). 1 mg/mL protease inhibitors (Protease Inhibitor Cocktail Set III, Merck Calbiochem®) and 1 mg/mL lysozyme were added to the cell suspension. The suspension was then sonicated for 5 min (UltraSonic Processor VCX 750, Cole-Parmer Instrument Co.) with a micro probe (50% amplitude, 10 sec on/off) and then centrifuged at 100,000 g for 90 min (at 4° C.). The supernatant was loaded onto a Ni-NTA HiTrap column (5 mL, GE Healthcare, pre-equilibrated in lysis buffer). The column was washed with 10 column volumes of lysis buffer and eluted with lysis buffer containing 500 mM imidazole. The pooled protein peak fractions were concentrated using a 10 kDa centrifugal filter at 3500 g and 4° C. (Amicon Ultra-15 centrifugal filter unit with Ultracel-10 membrane from Millipore). Further purification of the concentrated protein was carried out using gel filtration chromatography on a HiLoad 26/600 Superdex 75 preparative grade column (GE Healthcare Life Sciences) using 50 mM Tris pH 7.5, 50 mM NaCl, 1 mM dithiothreitol, 1 mM MgCl2. Fractions containing the protein were pooled, concentrated as described above, and stored at −80° C.
Expression and Purification of Cyclooxygenase-2 (COX-2) Protein
The full length human COX-2 gene (accession number L15326) was amplified by PCR to generate an EcoRI-HindIII fragment containing an in-frame FLAG tag. This was subcloned into pFastBac 1 (Invitrogen). The COX2 FLAG plasmid was recombined into the baculovirus genome according to the BAC-to-BAC protocol described by Invitrogen. Transfection into Spodoptera frugiperda (Sf9) insect cells was performed using Cellfectin (Invitrogen), according to the manufacturer's protocol. […] Cells were harvested using a continuous feed centrifuge run at 2500 g at a rate of approximately 2 L/min with cooling. The resultant cell slurry was re-centrifuged in pots (2500 g, 20 min, 4° C.) and the cell paste was stored at −80° C. […] The suspension was sonicated in 500 mL batches for 8×5 seconds at 10 u amplitude with the medium tip of an MSE probe sonicator and subsequently incubated at 4° C. for 90 min with gentle stirring. The lysate was centrifuged at 12000 rpm for 45 min at 4° C. in a Sorvall SLA1500 rotor. The supernatant (1400 mL) was added to 420 mL of 20 mM Tris-Cl pH 7.4, 150 mM NaCl, 0.1 mM EDTA to reduce the concentration of n-octyl-6-D-glucopyranoside to 1% w/v.

T1 sequence (O60760 whole entry): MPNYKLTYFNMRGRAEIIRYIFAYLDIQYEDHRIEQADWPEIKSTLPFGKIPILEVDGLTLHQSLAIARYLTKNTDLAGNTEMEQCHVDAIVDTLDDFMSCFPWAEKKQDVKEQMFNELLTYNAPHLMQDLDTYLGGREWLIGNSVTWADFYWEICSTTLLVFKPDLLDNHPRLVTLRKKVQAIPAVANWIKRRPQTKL

Q: How did the IC50 turn out when CC(C)(O)C1CC2(CC(NC(=O)[C@H]3C[C@H](Oc4cc(F)cc5scnc45)C3)C2)C1 (mixture of isomers) [Example 116, Racemic (trans)-3-((6-Fluorobenzo[d]thiazol-4-yl)oxy)-N-(6-(2-hydroxypropan-2-yl)spiro[3.3]heptan-2-yl)cyclobutanecarboxamide] was run?
A: 10 to 79.4 nM

Q: For CC(N[C@H]1CC[C@H](NC(=O)[C@H]2C[C@H](Oc3cc(F)cc4scnc34)C2)CC1)C(F)F (mixture of isomers) [Example 121, Racemic (trans)-N-((trans)-4-((1,1-Difluoropropan-2-yl)amino)cyclohexyl)-3-((6-fluorobenzo[d]thiazol-4-yl)oxy)cyclobutanecarboxamide], which IC50 is on record?
A: 10 to 79.4 nM

Q: Which IC50 does the source give for O=C(N[C@H]1CC[C@@H](NC(CO)C(F)(F)F)CC1)N1CC(Oc2cc(F)cc3scnc23)C1 (mixture of isomers) [Example 124, Racemic 3-((6-Fluorobenzo[d]thiazol-4-yl)oxy)-N-((cis)-4-((1,1,1-trifluoro-3-hydroxypropan-2-yl)amino)cyclohexyl)azetidine-1-carboxamide] here?
A: 10 to 79.4 nM

Q: O=C(N[C@H]1CC[C@@H](NC(CO)C(F)(F)F)CC1)[C@H]1C[C@H](Oc2cc(F)cc3scnc23)C1 (mixture of isomers) [Example 125, Racemic (trans)-3-((6-Fluorobenzo[d]thiazol-4-yl)oxy)-N-((cis)-4-((1,1,1-trifluoro-3-hydroxypropan-2-yl)amino)cyclohexyl)cyclobutanecarboxamide] was tested. Which IC50 did it give?
A: 10 to 79.4 nM

Q: Which IC50 does the source give for O=C(N[C@H]1CC[C@H](NC(CO)C(F)(F)F)CC1)[C@H]1C[C@H](Oc2cc(F)cc3scnc23)C1 (mixture of isomers) [Example 126, Racemic (trans)-3-((6-Fluorobenzo[d]thiazol-4-yl)oxy)-N-((trans)-4-((1,1,1-trifluoro-3-hydroxypropan-2-yl)amino)cyclohexyl)cyclobutanecarboxamide] here?
A: 10 to 79.4 nM

Q: For CC(C)(O)[C@@H]1CC[C@@H](NC(=O)N2CC(Oc3cc(F)cc4scnc34)C2)CO1 (racemic) [Example 127, Racemic 3-((6-Fluorobenzo[d]thiazol-4-yl)oxy)-N-((trans)-6-(2-hydroxypropan-2-yl)tetrahydro-2H-pyran-3-yl)azetidine-1-carboxamide], which IC50 is on record?
A: 10 to 79.4 nM

Q: For CC(C)(O)[C@@H]1CC[C@@H](NC(=O)[C@H]2C[C@H](Oc3cc(F)cc4scnc34)C2)CO1 (racemic) [Example 139, Racemic (trans)-3-((6-Fluorobenzo[d]thiazol-4-yl)oxy)-N-((trans)-6-(2-hydroxypropan-2-yl)tetrahydro-2H-pyran-3-yl)cyclobutanecarboxamide], which IC50 is on record?
A: 10 to 79.4 nM

Q: For CC(N[C@H]1CC[C@H](NC(=O)N2CC(Oc3cc(F)cc4scnc34)C2)CC1)C(F)F (mixture of isomers) [Example 142, Racemic N-((trans)-4-((1,1-Difluoropropan-2-yl)amino)cyclohexyl)-3-((6-fluorobenzo[d]thiazol-4-yl)oxy)azetidine-1-carboxamide], which IC50 is on record?
A: 10 to 79.4 nM

Q: COc1ccc(F)cc1O[C@H]1C[C@H](C(=O)NC2CCN(C(=O)OC(C)(C)C)C2)C1 (mixture of isomers) [Example 143, tert-butyl 3-((trans)-3-(5-fluoro-2-methoxyphenoxy)cyclobutanecarboxamido)pyrrolidine-1-carboxylate] was tested. Which IC50 did it give?
A: 10 to 79.4 nM

Q: COc1ccc(F)cc1O[C@H]1C[C@H](C(=O)NC2CCN(c3ncc(C#N)s3)C2)C1 (mixture of isomers) [Example 144, Racemic (trans)-N-(1-(5-Cyanothiazol-2-yl)pyrrolidin-3-yl)-3-(5-fluoro-2-methoxyphenoxy)cyclobutanecarboxamide] was tested. Which IC50 did it give?
A: 10 to 79.4 nM

Q: With COc1ccc(F)cc1O[C@H]1C[C@H](C(=O)NC2CCN(c3cc(C#N)ccn3)C2)C1 (mixture of isomers) [Example 145, Racemic (trans)-N-(1-(4-Cyanopyridin-2-yl)pyrrolidin-3-yl)-3-(5-fluoro-2-methoxyphenoxy)cyclobutanecarboxamide] as the compound, how does the IC50 read?
A: 10 to 79.4 nM

Q: Which IC50 does the source give for COc1ccc(F)cc1O[C@H]1C[C@H](C(=O)NC2CC(=O)Nc3ccccc32)C1 (mixture of isomers) [Example 153, Racemic (trans)-3-(5-Fluoro-2-methoxyphenoxy)-N-(2-oxo-1,2,3,4-tetrahydroquinolin-4-yl)cyclobutanecarboxamide] here?
A: 10 to 79.4 nM

Q: With COc1ccc(F)cc1O[C@H]1C[C@H](C(=O)NC2CC3(C2)CC(C(C)(C)O)C3)C1 (mixture of isomers) [Example 160, Racemic (trans)-3-(5-Fluoro-2-methoxyphenoxy)-N-(6-(2-hydroxypropan-2-yl)spiro[3.3]heptan-2-yl)cyclobutanecarboxamide] as the compound, how does the IC50 read?
A: < 10 nM

Q: With COc1ccc(F)cc1O[C@H]1C[C@H](C(=O)N[C@H]2CC[C@H](NC(C)C(F)(F)F)CC2)C1 (mixture of isomers) [Example 161, Racemic (trans)-3-(5-Fluoro-2-methoxyphenoxy)-N-((trans)-4-((1,1,1-trifluoropropan-2-yl)amino)cyclohexyl)cyclobutanecarboxamide] as the compound, how does the IC50 read?
A: 10 to 79.4 nM

Q: For CC(C)(O)C1CC2(CC(NC(=O)[C@H]3C[C@H](Oc4cccc5cccnc45)C3)C2)C1 (mixture of isomers) [Example 170, Racemic (trans)-N-(6-(2-Hydroxypropan-2-yl)spiro[3.3]heptan-2-yl)-3-(quinolin-8-yloxy)cyclobutanecarboxamide], which IC50 is on record?
A: 10 to 79.4 nM

Q: With CC(N[C@H]1CC[C@H](NC(=O)[C@H]2C[C@H](Oc3cccc4cccnc34)C2)CC1)C(F)(F)F (mixture of isomers) [Example 173, Racemic (trans)-3-(Quinolin-8-yloxy)-N-((trans)-4-((1,1,1-trifluoropropan-2-yl)amino)cyclohexyl)cyclobutanecarboxamide] as the compound, how does the IC50 read?
A: 10 to 79.4 nM

Q: CC(N[C@H]1CC[C@H](NC(=O)[C@H]2C[C@H](Oc3cccc4cccnc34)C2)CC1)C(F)F (mixture of isomers) [Example 180, Racemic (trans)-N-((trans)-4-((1,1-Difluoropropan-2-yl)amino)cyclohexyl)-3-(quinolin-8-yloxy)cyclobutanecarboxamide] was tested. Which IC50 did it give?
A: 100 to 1000 nM

Q: How did the IC50 turn out when CC(O)(c1csc(NC(=O)[C@H]2C[C@H](Oc3cccc4cccnc34)C2)n1)C(F)(F)F (mixture of isomers) [Example 187, Racemic (trans)-3-(Quinolin-8-yloxy)-N-(4-(1,1,1-trifluoro-2-hydroxypropan-2-yl)thiazol-2-yl)cyclobutanecarboxamide] was run?
A: 10 to 79.4 nM

Q: How did the IC50 turn out when CC(C)(O)[C@@H]1CC[C@@H](NC(=O)[C@H]2C[C@H](Oc3cccc4cccnc34)C2)CO1 (racemic) [Example 195, Racemic (trans)-N-((trans)-6-(2-Hydroxypropan-2-yl)tetrahydro-2H-pyran-3-yl)-3-(quinolin-8-yloxy)cyclobutanecarboxamide] was run?
A: 100 to 1000 nM

Q: How did the IC50 turn out when O=C(NC1CCc2ccccc21)[C@H]1C[C@H](Oc2cccc3cccnc23)C1 (mixture of isomers) [Example 212, Racemic (trans)-N-(2,3-Dihydro-1H-inden-1-yl)-3-(quinolin-8-yloxy)cyclobutanecarboxamide] was run?
A: 10 to 79.4 nM

Q: Which IC50 does the source give for CC1C(Oc2cc(F)cc3scnc23)CN1C(=O)N[C@H]1CC[C@H](C(C)(C)O)CC1 (mixture of isomers) [Example 236, Racemic 3-((6-Fluorobenzo[d]thiazol-4-yl)oxy)-N-((trans)-4-(2-hydroxypropan-2-yl)cyclohexyl)-2-methylazetidine-1-carboxamide] here?
A: 10 to 79.4 nM
